Experimental data taken from patent US10662150B2, “Sulfonic acid salt composition and use thereof for color stabilization” (L. BRÜGGEMANN GMBH & CO. KG, priority 2016, dated 2020).

Assay: Aqueous solubility according to OECD 105

Compound	Solubility in water at 23° C. [%]
2-hydroxy-2-sulfonatoacetic acid disodium salt	7
O=C([O-])C(O)S(=O)(=O)[O-].[Zn+2] (centres unmarked) [Example 1, Zinc-Salt of 2-Hydroxy-2-Sulfonatoacetic Acid]	39
